Reference: patent publication US20180028681A1, “COMBINATION THERAPY USING A CD19-ADC AND VINCRISTINE” (SEATTLE GENETICS, INC., priority 2015, published 2018)

Tests used:
[1] = test system: ALL patient donor 90811 xenograft; assay: Disease burden (blast cells) in bone marrow, patient-derived ALL xenograft donor 90811; type: in vivo, mouse; settings: for Disease Burden in Bone Marrow, CD45/10% Mean: NOD-scid IL2Rγ null mice, dosed at 18% blasts in sentinels, bone marrow counts day 10 post-dose
Excerpt: Establishment of patient-derived xenografts: NOD-scid IL2Rγ null mice were used as hosts for patient-derived xenografts. Twenty-four hours prior to cell implant, mice received 1.0 Gy irradiation using a Radsource 2000 irradiator (Radsource technologies, Suwanee, Ga.). Frozen bone marrow isolates of mononuclear cells from patients with acute lymphoblastic leukemia were obtained from […] (Alameda, Calif.). Cells were thawed in a warm water bath. After thaw, RPMI-1640 media was slowly added to the bone marrow isolate suspension. The cells were washed with PBS and centrifuged to remove DMSO in freezing media. After centrifugation, the cells were suspended in PBS. For, implantation, 3.6×10^6 cells were injected into the tail vein of female NOD-scid IL2Rγ null mice designated as donor, or passage 0 mice. Approximately 7 weeks after implant, mice were euthanized. Bone marrow and spleen were collected using sterile technique. Spleens were mechanically disrupted using a sterile syringe end and mesh filter. Connective tissues from spleens were filtered out using 40um filters. Splenocytes and bone marrow cells were treated with red blood cell buffer lysis (BD lysis buffer, BD biosciences, San Jose, Calif.) for 15 minutes at room temperature. A sample of the cells was utilized for confirmation of engraftment. The percentage of blast cells was determined by the number of CD45 FITC, CD19 PE-Cy.5 (BD Biosciences, San Jose, Calif.) CD10 APC (Biolegend, San Diego, Calif.) triple positive cells via flow cytometry (FACScalibur, BD Biosciences, San Jose, Calif.). The majority of the cells (passage 1) were placed into freezing media (90% Heat inactivated fetal bovine serum and 10% DMSO). Subsequent xenograft experiments utilized passage 1 cells. Cells were implanted in the same manner done for donor mice (passage 0 mice). Starting 14-21 days post implant, 2-3 sentinel mice were euthanized to determine the percentage blast cells in the bone marrow. […] SGN-CD19A and non-specific ADC (also called h00-1269) were administered as a single intraperitoneal injection at 1.0, 3.0, or 10.0 mg/kg dose. Cyclophosphamide at 15 or 30 mg/kg (Baxter, Deefield, Ill.), Vincristine at 0.188 or 0.375 mg/kg (Hospira, Lake Forest, Ill.), and Doxorubicin at 1.24 or 2.475 mg/kg (Pfizer, NY, NY) were combined and administered as a single dose via intravenous injection into the lateral tail vein. Dexamethasone at 7.5 or 15 mg/kg (APP Pharmaceuticals, Schaumberg, Ill.) was given daily via intraperitoneal injection for five days. At pre-determined times post treatment, mice were euthanized for collection of bone marrow and determination of blast cell percentage via flow cytometry.
The response of human patient-derived ALL cells to single agent SGN-CD19A or CVAD was determined in mouse xenograft models. Bone marrow isolates from patients with ALL (donor 06343 and donor 90811) were used to establish xenografts in NOD-scid IL2Rgamma^null mice. After engraftment, patient-derived bone marrow cells were frozen and are referred to as passage 1 cells. Passage 1 cells were implanted into mice and assessed for presence of blast cells (CD45/CD10/CD19 positive cells). […] Mice were given either 1, 3, or 10 mg/kg of SGN-CD19A or 10 mg/kg of a non-specific ADC conjugated to MMAF (also called h00-1269). A maximum tolerated dose (MTD) of CVAD had previously been determined in the same mouse strain. Mice were given either CVAD at the MTD or at 50% of the MTD.
The response of human patient-derived ALL cells to the combination of SGN-CD19A and CVAD was also determined in the mouse xenograft model. Patient samples were engrafted as described above.

NALM6 cells = assay: In vitro cytotoxicity (CellTiter-Glo) on NALM6 cells; type: cell-based; settings: 96 hours, minimally/low effective dose used for the combination
Description: Isobolograms: Cells were plated at 5000 per well in 384 well plates using Fluid-X liquid handler (Fluid-X, Boston, Mass.). SGN-CD19A and Vincristine were plated separately and serial diluted in 2×96 well plates per drug. SGN-CD19A and Vincristine were added to 384 well plates, either alone or in combination at range above and below the IC50 for each single agent using the Hamilton STAR automation robotics (Hamilton, Reno, Nev.). Cells were kept at 37° C. for 96 hours. Cell viability readout was performed using the CellTiter-Glo assay (Promega, Madison, Wis.). Luminescence was measured using the Envision plate reader (Perkin Elmer, Waltham, Mass.). Activity was determined by the luminescence of treated cells compared to that of untreated cells.
To verify the results of the in vivo SGN-CD19A plus vincristine or SGN-CD19A plus doxorubicin combinations, in vitro cytotoxicity experiments were performed. […] The concentration of each agent was serially diluted to include doses that would have no cytotoxicity to doses that would kill all cells. […] NALM-6 cells were also incubated with a combination of SGN-CD19A and doxorubicin, in a similar manner.

Molecule | Disease Burden in Bone Marrow, CD45/10% Mean [1] | cell kill as a single agent (NALM6 cells) | single agent dose response, blast cells in the bone marrow ([1]; SGN-CD19A 1, 3 or 10 mg/kg, CVAD at MTD or 50% of MTD, FIGS. 2B, 2D)
O=P1(N(CCCl)CCCl)NCCCO1 (centres unmarked) [Cyclophosphamide] | 94.4% |  | 
C[C@@H]1C[C@H]2[C@@H]3CCC4=CC(=O)C=C[C@]4(C)[C@@]3(F)[C@@H](O)C[C@]2(C)[C@@]1(O)C(=O)CO [Dexamethasone] | 91.8% |  | 
COc1cccc2c1C(=O)c1c(O)c3c(c(O)c1C2=O)C[C@@](O)(C(=O)CO)C[C@@H]3O[C@H]1C[C@H](N)[C@H](O)[C@H](C)O1 [Doxorubicin] | 86.7% | approximately 20% | 
CC[C@]1(O)C[C@H]2CN(CCc3c([nH]c4ccccc34)[C@@](C(=O)OC)(c3cc4c(cc3OC)N(C=O)[C@H]3[C@@](O)(C(=O)OC)[C@H](OC(C)=O)[C@]5(CC)C=CCN6CC[C@]43[C@@H]65)C2)C1 [Vincristine] | 32.2% | approximately 5% | 
SGN-CD19A: CD19-directed antibody-drug conjugate: humanized antibody hBU12, maleimidocaproyl linker, monomethyl auristatin F (MMAF); average four drugs per antibody (conjugate) VL: EIVLTQSPATLSLSPGERATLSCSASSSVSYMHWYQQKPGQAPRLLIYDTSKLASGIPARFSGSGSGTDFTLTISSLEPEDVAVYYCFQGSVYPFTFGQGTKLEIKR VH: QVQLQESGPGLVKPSQTLSLTCTVSGGSISTSGMGVGWIRQHPGKGLEWIGHIWWDDDKRYNPALKSRVTISVDTSKNQFSLKLSSVTAADTAVYYCARMELWSYYFDYWGQGTLVTVSS | 18.2% |  | decreasing amounts of blast cells in the bone marrow
